Data: patent US20220370382A1, “METHODS AND COMPOSITIONS FOR CORRECTION OF AUTONOMIC DYSFUNCTIONS” (priority 2021, published 2022)

How the values were obtained:
[1] = person, Ehlers-Danlos syndrome, given for a hospital-induced infection
[2] = test system: effector organs of the vagus nerve; test: Stimulation of the effector organs of the vagus nerve in patients tested; assay type: in vivo, human
Source text: Certain ingredients of the compound (a choline compound, an acetylcholinesterase inhibitor and Acetyl-L-Carnitine) have been used to reduce inflammation, to assist those suffering from metabolic insufficiencies, and for healthy memory and mental function, and numerous studies have been published involving cognition, dementia, age-related memory loss and neurodegeneration with these ingredients. (U.S. Pat. No. 6,537,969 B1, Patent No. US 2008/0213401). […] It is not intuitive or obvious that any two of these ingredients can also be effective and that any two of these ingredients can restore parasympathetic nerve function even when the postganglionic nerve is not viable for any reason, by directly stimulating the effector organs themselves.
Driscoll found the use of nicotine can diagnose pre-ganglionic vagus nerve dysfunction. […] Nicotine (transdermal, suppository, or) can be used to discern receptor damage from either direct nerve damage or neurotransmitter dysfunction. These forms of nicotine can be used to verify that the organ is capable of responding, to test the cholinergic receptors or postganglionic nerve, or can be used for short periods of time to assist with said organ function (ileocecal valve, gastroparesis/constipation, gallbladder, pancreas, gastric acid secretion). No part of the vagus nerve is required for the use of nicotine to be effective because the invention can effectively stimulate the receptor on the organ itself. […]

[3] = test system: patients with autonomic dysfunction and/or connective tissue disorders; test: Patient case studies: other signs (tachycardia, dry eyes, light sensitivity, Roth spot, gallbladder function, pseudotumor cerebri symptoms); assay type: in vivo, human; conditions: person, POTS, Idiopathic Intracranial Hypertension; acetazolamide 250 mg three times per day
Experimental: They also suffered with poor digestion, dry eyes, and fatigue.
Most every day (usually in the evenings) they experienced pseudo seizures lasting from 30 minutes to three hours. These began with their eyes rolling up and their eyelids fluttering, then they progressed to full body twitching and spasming. These pseudo seizures continued for over three years, but physicians were unable to locate the source of their symptoms. A Roth spot in their ocular fundus in addition to numerous symptoms of nutrient malabsorption were noted. They suffered with light sensitivity secondary to large pupils (5.5 mm), weight loss, extreme fatigue, constipation, tachycardia, and dry eyes.
Gallbladder removal surgery was recommended.

[4] = test system: patients with autonomic dysfunction and/or connective tissue disorders; conditions: person, POTS, Idiopathic Intracranial Hypertension; acetazolamide 250 mg three times per day
Source text: Acetazolamide was prescribed for high intracranial pressure.

[5] = cited from earlier work

Structure (SMILES): CN[C@H](CC(C)C)C(=O)N[C@H]1C(=O)N[C@@H](CC(N)=O)C(=O)N[C@H]2C(=O)N[C@H]3C(=O)N[C@H](C(=O)N[C@H](C(=O)O)c4cc(O)cc(O)c4-c4cc3ccc4O)[C@H](O)c3ccc(c(Cl)c3)Oc3cc2cc(c3O[C@@H]2O[C@H](CO)[C@@H](O)[C@H](O)[C@H]2O[C@H]2C[C@](C)(N)[C@H](O)[C@H](C)O2)Oc2ccc(cc2Cl)[C@H]1O [Vancomycin]
- adverse reaction to antibiotic [1]: developed hives and dramatic flushing

Structure (SMILES): Cc1ncc(C[n+]2csc(CCO)c2C)c(N)n1 [Thiamin]
- autonomic dysfunction or disorders of the effector organs of the parasympathetic nervous system ([2]; supplementation alone): will not eliminate

Structure (SMILES): CC(=O)Nc1nnc(S(N)(=O)=O)s1 [acetazolamide]
- pseudotumor cerebri symptoms [3]: relieved
- visual snow [4]: did not improve

Structure (SMILES): C[N+](C)(C)CC(O)CC(=O)[O-] (centres unmarked) [carnitine]
- organ function when added to the compound ([2]; case studies, patients with organ malfunction secondary to poor vagus nerve function): better organ function

Structure (SMILES): CN1CCCC1c1cccnc1 (centres unmarked) [Nicotine]
- lethal dosage ([5]; human, in vivo): 60 mg
- side effects on chronic use ([5]; treatment of parasympathetic and vagus nerve dysfunction on a chronic basis): dermatographia, hives, itching, and welting

Structure (SMILES): CN1CCCC1c1cccnc1 (centres unmarked) [oral nicotine, nicotine]
- stimulation of the effector organs of the vagus nerve / restoration of vagus nerve function ([2]; patients tested, ingredient used alone, or nicotine by the stated route (transdermal 1-21 mg)): not effective
